Laboratory results from US20240368559A1, “METHOD OF PRODUCING BRAIN MICROVASCULAR ENDOTHELIAL-LIKE CELLS AND USE THEREOF” (PUBLIC UNIVERSITY CORPORATION NAGOYA CITY UNIVERSITY, priority 2021, published 2024).

Legend:
Type in all cases: cell-based
[1] = test system: iBPCs (human iPS cell-derived brain pericytes); test: Brain pericyte marker gene expression in iBPCs by RT-q PCR; details: FIG. 20; 1 μM A 83-01 from day 8, iBPCs on day 12 of differentiation
Procedure: (§1) The above-described hiPSCs were used and induced to differentiate into iBPCs. Human iPS cells cultured in mTeSR plus medium were detached by using TrypLE Select, seeded on a VTN-N-coated culture dish at a density of 2×10^4 cells/cm^2, and then cultured in mTeSR plus medium containing 10 μM of Y-27632 (manufactured by Focus Biomolecules) for 24 hours. Thereafter, the cells were cultured for 1 day in modified DMEM/F12 medium (DMEM/F12 containing 0.1% chemically defined lipid concentrate, 0.1×insulin-transferrin-selenium (from Thermo Fisher Scientific), 2 mM GlutaMAX (from Sigma-Aldrich), […] 1-thioglycerol (from Sigma-Aldrich), 50 μg/mL of L-ascorbic acid phosphate magnesium salt n-hydrate, and 1×penicillin-streptomycin solution) supplemented with 5 μM CHIR-99021 (manufactured by Focus Biomolecules). Next, the cells were cultured for 1 day in modified DMEM/F12 medium containing 50 ng/mL of FGF2. […]
The expression level of each brain pericyte marker gene was analyzed by RT-q PCR. […] Relative expression levels of mRNA in X (+) and X (−) were determined while the expression level of mRNA in hPCs was set to 1 as a reference. […]

[2] = test system: iBMELCs (human iPS cell-derived brain microvascular endothelial-like cells); test: Transendothelial electrical resistance (TEER) of iBMELCs induced to differentiate from iEPCs under varied medium and coating conditions; details: FIG. 6
Excerpt: iEPCs were induced to differentiate into iBMELCs under conditions where the coating agent and the additive added to the culture medium each varied. For coating the culture dish, as described above, two components of FBN and COL4, or three components obtained by adding any one component of VTN-N, LN221, LN411F, and LN511F to these two components, or four components obtained by adding LN411F and LN511F to these two components were used. As the third component, Laminin211, Laminin411, Laminin511, Agrin, Laminin-mix, Laminin-fragment mix, or hep ex was also used. […]
In order to examine the effect of cryopreserving iEPCs induced to differentiate from hiPSCs, the difference in transendothelial electrical resistance (TEER value) was compared between the presence and absence of freezing. A frozen group, in which iEPCs on day 14 of differentiation were frozen and thawed by the above-described method, and a unfrozen group of unfrozen iEPCs on day 14 of differentiation were induced to differentiate into iBMELCs by the above-described method while using the above-described differentiation-inducing condition A, and the TEER value was then measured. […] As used herein, the “maximum TEER value” means the maximum value among the TEER values measured on each day from day 2 after seeding to day 10 after seeding. […]

[3] = test system: iBPCs (human iPS cell-derived brain pericytes); test: Cell scratch test of cell migration ability and proliferation potential of iBPCs; details: FIGS. 23 and 24
Procedure: as §1
Samples used were iBPCs (X (+)) induced to differentiate by adding A 83-01 in the above method and iBPCs (X (−)) induced to differentiate without adding A 83-01 in the above method. […] How the cells migrated 0, 12, and 24 hours of culture after cell scratching was checked by bright field observation, and the scratched area was calculated by Image J.

[4] = test system: iBPCs (human iPS cell-derived brain pericytes); test: Brain pericyte marker protein expression in iBPCs by immunostaining; details: FIGS. 21 and 22; 1 μM A 83-01 in differentiation medium
Procedure: as §1, with “FGF2. Then, the cells were cultured for 2 days in EGM-2 medium (EGM-2 basal medium containing 2% FBS, 0.2 μg/mL hydrocortisone, 10 ng/mL FGF2, 20 ng/mL R3-IGF-1, 1 μg/mL ascorbic acid, 5 ng/mL hEGF, gentamicin, and amphotericin B) supplemented with 50 ng/mL PDGF-BB and 0.5 ng/mL VEGF. During this time, the medium was changed every day. On day 4, cells treated with 10 μM Y-27632 for 1 hour were dissociated using TrypLE Select, subcultured on a new VTN-N-coated culture dish at 1.25×10^4 cells/cm^2, and then induced to differentiate in an EGM-2 medium containing 50 ng/mL PDGF-BB. During this time, the medium was changed every day. On day 8 of differentiation, the cells were induced to differentiate in an EGM-2 medium containing 50 ng/mL PDGF-BB, and 1 μM A 83-01. During this time, the medium was changed every day.” for “FGF2.”
iBPCs (X(+) and X(−)) induced to differentiate from hiPSCs by the above method were analyzed by immunostaining in order to check the properties as BPCs. […] After that, the cells were washed three times with D-PBS (−), and then analyzed with an Operetta High-Content Imaging System (manufactured by PerkinElmer). […]

For `Cc1cccc(-c2nn(C(=S)Nc3ccccc3)cc2-c2ccnc3ccccc23)n1` [A 83-01], the “relative mRNA expression level of α-SMA (human primary pericytes = 1)” value [1] was “suppress the gene expression of α-SMA to the same extent as that of human primary pericytes”, the “maximum TEER value (barrier function of iBMELCs) at content of 1 μM” value ([2]; 1 μM vs 10 μM) was “high barrier function equivalent to the case of the content of 10 μM” and the “maximum TEER value (barrier function of iBMELCs), added vs not added” value ([2]; 0.1, 1 or 10 μM in HE-SFM with 20 ng/mL FGF2 and 7.5% B27s, FBN+COL4 coating) was “the barrier function of iBMELCs was higher than that when A 83-01 was not added”. For the same compound, the “cell migration ability and proliferation potential of iBPCs” value ([3]; X (+) vs X (−)) was “enhance the cell migration ability and proliferation potential of iBPCs”, the “relative distance of the cell scratch portion (0 hour = 1)” value ([3]; iBPCs (X (+)), 24 hours after cell scratching, number of samples 1) was 0 and the “expression of NG2 (relative average fluorescence intensity, X (−) = 1)” value [4] was “did not significantly affect”. For the same compound, the “expression of PDGFR-β (relative average fluorescence intensity, X (−) = 1)” value [4] was “did not significantly affect” and the “protein expression of α-SMA (relative average fluorescence intensity, X (−) = 1)” value [4] was “suppress the protein expression of α-SMA”.
